We go through 27 molecules from patent US5834491A, “Bis(2-aminopyridine)s, preparation method therefor and use thereof for controlling parasitic infections” (priority 1994, dated 1998).

pIC50: −log10 of the molar value. Where a name gives a salt, the structure may show the parent alone. Read-outs that look alike come from different tables or passages of the source. Bounds are passed on as bounds.

Data set [1] relates to Plasmodium vinckei, petteri or chabaudi. Briefly: Antimalarial activity in vivo, infected mice, 4 days. The settings on record: ip, I.P., twice daily for 4 consecutive days. Further details: species or system petteri or chabaudi (male Swiss mice). As for the experimental part:
This activity is measured according to the test described by PETERS W. (Chemotherapy and Drug resistance in Malaria, 1970). A compound according to the invention is administered for 4 consecutive days to mice infected beforehand with malaria using Plasmodium vinckei, petteri or chabaudi.
The said compound is dissolved in 0.9% aqueous NaCl solution or, where appropriate, in 10% aqueous gum arabic solution. The preparations are thus administered intraperitoneally or subcutaneously to male Swiss mice of average weight 30 to 40 g which have been infected beforehand intravenously with Plasmodium petterei or P. chabaudi (10^6 infected cells). The compound is administered twice daily for 4 consecutive days, the first injection being performed 2 hours after infestation, and the second 10 hours after. The parasitaemia is determined by means of a smear on the day following the end of the treatment.
The results are collated in Table II, in the form of an ED50 (dose of compound administered in vivo capable of a 50% inhibition of the growth of the parasites).

Data set [2] is described as follows: Semi-chronic toxicity in vivo. The settings on record: mouse, mice.
Data set [3] deals with Plasmodium falciparum. Description: Antimalarial activity in vitro towards Plasmodium falciparum ([3H]hypoxanthine incorporation, infected human erythrocytes). The format is cell-based. To be noted: Erythrocyte, approximately 48 hours; for IC50 upper bound (active at tested concentration): Table I; for pIC50: Table II. How it is done: Evaluation of the antimalarial activity in vitro is carried out according to the method of DESJARDINS, CANFIELD, HATNES and CHULAY (Antimicrob. Agents Chemother., 1979, 16, 710-718). A compound according to the invention is brought into contact for approximately 48 hours with human erythrocytes infected with Plasmodium falciparum. When a radioactive nucleic acid precursor, hypoxanthine, is added to the preparation, only erythrocytes infected with Plasmodium and not affected by the said compound incorporate this precursor. […] The results are presented in Table I below, in the form of an IC50 (or ED50) (concentration of compound capable of inhibiting in vitro the growth of the parasites by 50%).
The derivatives according to the above examples are tested at three concentrations, 100, 33 and 10 nanomolar.

For data set [4] the following is noted: cited from earlier work.
For data set [5] the following is noted: cited from earlier work. This is another data set of the same source.
The mark [6] stands for this setting: ip, I.P., 2 injections daily for four days, read-out: Toxicity LD50 I.P.
The mark [7] stands for this setting: po, P.O., semi-chronic, four days, read-out: Toxicity LD50 P.O.
Setting [8] is: 33 nM, read-out: Plasmodium IC50 in vitro resp. at 33 nM.
Where [9] appears, read: 100 nM, read-out: Plasmodium IC50 in vitro resp. 100 nM.

Take `Cc1cccn(CCCCCCCCCCCCn2cccc(C)c2=N)c1=N` [Example 2, 1,1'-(1,12-dodecanediyl)bis(3-methyl-2(1H)-pyridinimine) dihydrobromide]: the median effective dose (ED50) – broadly, the dose at which the effect has come halfway, by size or by number of responders – in data set [1] stood at 3 mg/kg. In addition, the LD50 (in general, the dose at which mortality reaches 50%) in data set [2] (setting [6]) is 20 mg/kg; in data set [2] (setting [7]) it was greater than 500 mg/kg. The IC50 upper bound (active at tested concentration) in data set [3] (setting [8]) is less than 33 nM; in data set [3] (setting [9]), less than 100 nM. For the same molecule, in data set [3], the negative-log IC50 (pIC50) (in general, the negative decadic logarithm of the IC50, by convention in mol/L) is 8.74.

As for `Cc1ccc(=N)n(CCCCCCCCCCCCn2cc(C)ccc2=N)c1` [Example 3, 1,1'-(1,12-dodecanediyl)bis(5-methyl-2(1H)-pyridinimine) dihydrobromide], in data set [1], the ED50 worked out at 3 mg/kg. The LD50 was 6.5 mg/kg in data set [2] (setting [6]) and greater than 300 mg/kg in data set [2] (setting [7]). The IC50 upper bound (active at tested concentration) in data set [3] (setting [8]) is less than 33 nM; in data set [3] (setting [9]), less than 100 nM. The molecule also had a pIC50 in data set [3] of 9.30.

Take `Cc1cccc(=N)n1CCCCCCCCCCCCn1c(C)cccc1=N` [Example 4, 1,1'-(1,12-dodecanediyl)bis(6-methyl-2(1H)-pyridinimine) dihydrobromide]: the results for the IC50 upper bound (active at tested concentration) in data set [3] (setting [8]) and in data set [3] (setting [9]) were less than 33 nM and less than 100 nM, respectively.

As to `N=c1ccc(-c2ccccc2)cn1CCCCCCCCCCCCn1cc(-c2ccccc2)ccc1=N` [Example 5, 1,1'-(1,12-dodecanediyl)bis(5-phenyl-2(1H)-pyridinimine) dihydrobromide], the IC50 upper bound (active at tested concentration) in data set [3] (setting [8]) is less than 33 nM; in data set [3] (setting [9]), less than 100 nM.

For `N=c1c(OCc2ccccc2)cccn1CCCCCCCCCCCCn1cccc(OCc2ccccc2)c1=N` [Example 6, 1,1'-(1,12-dodecanediyl)bis(3-phenylmethoxy-2(1H)-pyridinimine) dihydrobromide], the IC50 upper bound (active at tested concentration) is less than 33 nM in data set [3] (setting [8]) and less than 100 nM in data set [3] (setting [9]).

In the case of `Cc1ccc(-c2ccn(CCCCCCCCCCCCn3ccc(-c4ccc(C)cc4)cc3=N)c(=N)c2)cc1` [Example 7, 1,1'-(1,12-dodecanediyl)bis(4-(4-methyl-phenyl)-2(1H)-pyridinimine) dihydrobromide], the IC50 upper bound (active at tested concentration) in data set [3] (setting [8]) is less than 33 nM; in data set [3] (setting [9]), less than 100 nM.

Regarding `CCCCc1cccn(CCCCCCCCCCCCn2cccc(CCCC)c2=N)c1=N` [Example 8, 1,1'-(1,12-dodecanediyl)bis(3-n-butyl-2(1H)-pyridinimine) dihydrobromide], the IC50 upper bound (active at tested concentration) in data set [3] (setting [8]) was less than 33 nM; in data set [3] (setting [9]) it was less than 100 nM.

Regarding `N=c1ccc(Cl)cn1CCCCCCCCCCCCn1cc(Cl)ccc1=N` [Example 9, 1,1'-(1,12-dodecanediyl)bis(5-chloro-2(1H)-pyridinimine) dihydrobromide], it took a dose of 4 mg/kg to reach the 50% effect level in data set [1] (ED50). For the same molecule, the LD50 in data set [2] (setting [6]) is 10 mg/kg; in data set [2] (setting [7]), greater than 200 mg/kg. For the same molecule, the IC50 upper bound (active at tested concentration) in data set [3] (setting [8]) is less than 33 nM; in data set [3] (setting [9]) it was less than 100 nM. This molecule gave a pIC50 in data set [3] of 8.85.

As to `N=c1cc(Br)ccn1CCCCCCCCCCCCn1ccc(Br)cc1=N` [Example 10, 1,1'-(1,12-dodecanediyl)bis(4-bromo-2(1H)-pyridinimine) dihydrobromide], the IC50 upper bound (active at tested concentration) is less than 33 nM in data set [3] (setting [8]) and less than 100 nM in data set [3] (setting [9]).

On to `N=c1c(Cl)cc(C(F)(F)F)cn1CCCCCCCCCCCCn1cc(C(F)(F)F)cc(Cl)c1=N` [Example 11, 1,1'-(1,12-dodecanediyl)bis(3-chloro-5-trifluoromethyl-2(1H)-pyridinimine) dihydrobromide], for which the IC50 upper bound (active at tested concentration) was less than 33 nM in data set [3] (setting [8]) and less than 100 nM in data set [3] (setting [9]).

As to `Cc1ccc(=N)n(CCCCCCCCn2cc(C)ccc2=N)c1` [Example 12, 1,1'-(1,8-octanediyl)bis(5-methyl-2(1H)-pyridinimine) dihydrobromide], the IC50 upper bound (active at tested concentration) in data set [3] (setting [8]) is greater than 33 nM; in data set [3] (setting [9]) it was less than 100 nM.

Turning to `Cc1ccn(CCCCCCCCn2ccc(C)cc2=N)c(=N)c1` [Example 13], the results for the IC50 upper bound (active at tested concentration) in data set [3] (setting [8]) and in data set [3] (setting [9]) were less than 33 nM and less than 100 nM, respectively.

With `Cc1ccn(CCCCCCn2ccc(C)cc2=N)c(=N)c1` [Example 14, 1,1'-(1,6-hexanediyl)bis(4-methyl-2(1H)-pyridinimine) dihydrobromide], the IC50 upper bound (active at tested concentration) is greater than 33 nM in data set [3] (setting [8]) and less than 100 nM in data set [3] (setting [9]).

As for `Cc1ccn(CCCCCCCCCCCCCCCCn2ccc(C)cc2=N)c(=N)c1` [Example 15, 1,1'-(1,16-hexadecanediyl)bis(4-methyl-2(1H)-pyridiniminedihydrobromide], the IC50 upper bound (active at tested concentration) is less than 33 nM in data set [3] (setting [8]) and less than 100 nM in data set [3] (setting [9]).

For the molecule `CCc1ccn(CCCCCCCCCCCCCCCCn2ccc(CC)cc2=N)c(=N)c1` [Example 16, 1,1'-(1,16-hexadecanediyl)bis(4-ethyl-2(1H)-pyridinimine) dihydrobromide], the IC50 upper bound (active at tested concentration) in data set [3] (setting [8]) was greater than 33 nM; in data set [3] (setting [9]), less than 100 nM.

`Cc1ccn(CCCCCCCCCCCCn2ccc(C)c(C)c2=N)c(=N)c1C` [Example 17, 1,1'-(1,12-dodecanediyl)bis(3,4-dimethyl-2(1H)-pyridinimine)]: the IC50 upper bound (active at tested concentration) in data set [3] (setting [8]) was less than 33 nM; in data set [3] (setting [9]), less than 100 nM.

As for `Cc1cc(C)c(=N)n(CCCCCCCCCCCCn2cc(C)cc(C)c2=N)c1` [Example 18, 1,1'-(1,12-dodecanediyl)bis(3,5-dimethyl-2(1H)-pyridinimine)], the IC50 upper bound (active at tested concentration) is less than 33 nM in data set [3] (setting [8]) and less than 100 nM in data set [3] (setting [9]).

Regarding `Cc1ccc(C)n(CCCCCCCCCCCCn2c(C)ccc(C)c2=N)c1=N` [Example 19, 1,1'-(1,12-dodecanediyl)bis(3,6-dimethyl-2(1H)-pyridinimine)], the IC50 upper bound (active at tested concentration) in data set [3] (setting [8]) is less than 33 nM; in data set [3] (setting [9]) it was less than 100 nM.

For `Cc1cc(=N)n(CCCCCCCCCCCCn2cc(C)c(C)cc2=N)cc1C` [Example 20, 1,1'-(1,12-dodecanediyl)bis(4,5-dimethyl-2(1H)-pyridinimine)], the IC50 upper bound (active at tested concentration) in data set [3] (setting [8]) is less than 33 nM; in data set [3] (setting [9]), less than 100 nM.

`Cc1cc(C)n(CCCCCCCCCCCCn2c(C)cc(C)cc2=N)c(=N)c1` [Example 21, 1,1'-(1,12-dodecanediyl)bis(4,6-dimethyl-2(1H)-pyridinimine)]: the IC50 upper bound (active at tested concentration) in data set [3] (setting [8]) is less than 33 nM; in data set [3] (setting [9]), less than 100 nM.

Regarding `Cc1ccc(=N)n(CCCCCCCCCCCCn2c(C)c(C)ccc2=N)c1C` [Example 22, 1,1'-(1,12-dodecanediyl)bis(5,6-dimethyl-2(1H)-pyridinimine)], the IC50 upper bound (active at tested concentration) in data set [3] (setting [8]) was less than 33 nM; in data set [3] (setting [9]), less than 100 nM.

Take `CCc1cccn(CCCCCCCCCCCCn2cccc(CC)c2=N)c1=N` [Example 23, 1,1'-(1,12-dodecanediyl)bis(3-ethyl-2(1H)-pyridinimine)]: the 50% effective dose (ED50) in data set [1] was greater than 5 mg/kg. Also, the LD50 was 23 mg/kg in data set [2] (setting [6]) and greater than 400 mg/kg in data set [2] (setting [7]). Moreover, the figures for the IC50 upper bound (active at tested concentration) in data set [3] (setting [8]) and in data set [3] (setting [9]) were greater than 33 nM and less than 100 nM, respectively. The pIC50 in data set [3] was 8.14.

Take `CCc1ccn(CCCCCCCCCCCCn2ccc(CC)cc2=N)c(=N)c1` [Example 24, 1,1'-(1,12-dodecanediyl)bis(4-ethyl-2(1H)-pyridinimine)]: in data set [3] (setting [9]), the IC50 upper bound (active at tested concentration) was greater than 100 nM.

As for `CCc1ccc(=N)n(CCCCCCCCCCCCn2cc(CC)ccc2=N)c1` [Example 25, 1,1'-(1,12-dodecanediyl)bis(5-ethyl-2(1H)-pyridinimine)], in data set [1], the ED50 is greater than 5 mg/kg. Further, the results for the LD50 in data set [2] (setting [6]) and in data set [2] (setting [7]) were 7.5 mg/kg and greater than 200 mg/kg, respectively. Also, the IC50 upper bound (active at tested concentration) in data set [3] (setting [8]) was less than 33 nM; in data set [3] (setting [9]), less than 100 nM. The molecule further showed a negative logarithm of the IC50 (pIC50) in data set [3] of 8.42.

In the case of `CCc1cccc(=N)n1CCCCCCCCCCCCn1c(CC)cccc1=N` [Example 26, 1,1'-(1,12-dodecanediyl)bis(6-ethyl-2(1H)-pyridinimine)], the IC50 upper bound (active at tested concentration) is less than 33 nM in data set [3] (setting [8]) and less than 100 nM in data set [3] (setting [9]).

With `CO[C@H]1O[C@@H]2O[C@@]3(C)CC[C@H]4[C@H](C)CC[C@@H]([C@H]1C)[C@@]24OO3` [artemether], in data set [4], the half-life entry was “short half-life”. For the same molecule, the water-solubility entry in data set [5] is reported as “low water-solubility”.

On to `C[C@@H]1CC[C@H]2[C@@H](C)C(=O)O[C@@H]3O[C@@]4(C)CC[C@@H]1[C@]32OO4` [artemisinine], for which, in data set [5], the water-solubility result is reported as “low water-solubility”.
